What follows are molecules tested against T1, human glucocorticoid receptor (Homo sapiens, UniProt P04150) (assay: Glucocorticoid Receptor Binding Assay (I), fluorescence polarization competitor kit). Details: purified human recombinant full-length GR, Fluormone GS Red.
T1 construct: purified human recombinant full-length glucocorticoid receptor (2 nM); purchased Invitrogen Part #2893
T1 sequence (P04150 1-777): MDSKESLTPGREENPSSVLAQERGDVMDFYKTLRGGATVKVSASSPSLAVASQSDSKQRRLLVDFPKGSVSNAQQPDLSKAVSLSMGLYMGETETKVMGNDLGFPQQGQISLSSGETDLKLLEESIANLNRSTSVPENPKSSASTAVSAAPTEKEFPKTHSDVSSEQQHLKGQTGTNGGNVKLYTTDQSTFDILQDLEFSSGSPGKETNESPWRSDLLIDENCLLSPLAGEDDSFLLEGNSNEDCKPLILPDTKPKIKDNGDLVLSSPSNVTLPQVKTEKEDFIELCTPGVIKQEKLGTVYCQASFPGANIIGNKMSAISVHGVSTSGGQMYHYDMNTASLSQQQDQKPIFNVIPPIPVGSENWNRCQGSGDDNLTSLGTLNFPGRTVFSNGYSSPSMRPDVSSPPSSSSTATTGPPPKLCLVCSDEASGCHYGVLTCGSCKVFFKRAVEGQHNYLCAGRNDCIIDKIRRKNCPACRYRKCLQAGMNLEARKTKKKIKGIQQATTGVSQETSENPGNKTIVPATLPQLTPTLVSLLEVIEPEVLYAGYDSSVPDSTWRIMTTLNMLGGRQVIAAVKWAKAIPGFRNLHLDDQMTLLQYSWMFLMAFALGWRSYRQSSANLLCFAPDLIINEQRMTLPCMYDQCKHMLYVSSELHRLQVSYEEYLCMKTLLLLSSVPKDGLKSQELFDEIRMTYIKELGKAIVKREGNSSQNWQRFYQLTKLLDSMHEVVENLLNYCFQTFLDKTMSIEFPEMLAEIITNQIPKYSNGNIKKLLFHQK
Experimental: Glucocorticoid Receptor Binding Assay (I)^a
In order to assess the affinity of test compounds for the human glucocorticoid receptor, a commercially available kit was used (Glucocorticoid Receptor Competitor Assay Kit, Invitrogen Part #2893). Briefly, purified human recombinant full-length glucocorticoid receptor (2 nM) was mixed with fluorescently labeled glucocorticoid (1 nM Fluormone GS Red) in the presence or absence of test compound. After two hour incubation at room temperature in the dark, the fluorescence polarization (FP) of the samples was measured. The FP of a mixture of receptor, fluorescent probe (i.e. Fluormone GS Red) and 5 μM dexamethasone represented background fluorescence or 100% inhibition, whereas, the FP of the mixture without dexamethasone (but in the presence of vehicle) was taken to be 100% binding. The percentage inhibition of test compounds were then compared to the sample with 5 μM dexamethasone and expressed as % relative binding activity with dexamethasone being 100% and no inhibition is 0%. Test compounds were analyzed in the concentration range from 8.5E-05 μM to 5 μM.

SMILES	Ki
CC(C)(C(=O)Nc1nncs1)[C@@H](c1cccc(F)c1)c1ccc(-c2ccc(C(=O)N3CCC3)cc2)s1 [Example 81, (3R)-3-(5-(4-(1-azetidinylcarbonyl)phenyl)-2-thienyl)-3-(3-fluorophenyl)-2,2-dimethyl-N-1,3,4-thiadiazol-2-ylpropanamide]	4.32 nM
CC(C)(C(=O)Nc1nncs1)[C@@H](c1cccc(F)c1)c1ccc(-c2ccc(C(=O)N3CCC3)c(F)c2)s1 [Example 82, (3R)-3-(5-(4-(1-azetidinylcarbonyl)-3-fluorophenyl)-2-thienyl)-3-(3-fluorophenyl)-2,2-dimethyl-N-1,3,4-thiadiazol-2-ylpropanamide]	2.66 nM
CN(C)C(=O)c1ccc(-c2ccc(C(c3cc(F)cc(F)c3)C(C)(C)C(=O)Nc3nncs3)s2)cc1Cl (centres unmarked) [Example 91, 2-chloro-4-(5-(1-(3,5-difluorophenyl)-2,2-dimethyl-3-oxo-3-(1,3,4-thiadiazol-2-ylamino)propyl)-2-thienyl)-N,N-dimethylbenzamide]	4.59 nM
CCN(C)C(=O)c1ccc(-c2ccc(C(c3cc(F)cc(F)c3)C(C)(C)C(=O)Nc3nncs3)s2)cc1 (centres unmarked) [Example 92, 4-(5-(1-(3,5-difluorophenyl)-2,2-dimethyl-3-oxo-3-(1,3,4-thiadiazol-2-ylamino)propyl)-2-thienyl)-N-ethyl-N-methylbenzamide]	1.14 nM
C[C@H](C(=O)Nc1nncs1)[C@@H](c1cccc(F)c1)c1ccc(Br)s1 [Example 94, (2S,3S)-3-(5-bromo-2-thienyl)-3-(3-fluorophenyl)-2-methyl-N-1,3,4-thiadiazol-2-ylpropanamide]	4.11 nM
C[C@H](C(=O)Nc1nncs1)[C@H](c1cccc(F)c1)c1ccc(Br)s1 [Example 95, (2S,3R)-3-(5-bromo-2-thienyl)-3-(3-fluorophenyl)-2-methyl-N-1,3,4-thiadiazol-2-ylpropanamide]	0.76 nM
C[C@@H](C(=O)Nc1nncs1)[C@H](c1cccc(F)c1)c1ccc(Br)s1 [Example 97, (2R,3R)-3-(5-bromo-2-thienyl)-3-(3-fluorophenyl)-2-methyl-N-1,3,4-thiadiazol-2-ylpropanamide]	1.96 nM
CCN(C)C(=O)c1ccc(-c2ccc([C@H](c3cccc(F)c3)[C@H](C)C(=O)Nc3nncs3)s2)cc1 [Example 106, N-ethyl-4-(5-((1S,2S)-1-(3-fluorophenyl)-2-methyl-3-oxo-3-(1,3,4-thiadiazol-2-ylamino)propyl)-2-thienyl)-N-methylbenzamide]	2.44 nM
C[C@H](C(=O)Nc1nncs1)[C@@H](c1cccc(F)c1)c1ccc(-c2ccc(C(=O)N3CCOCC3)cc2)s1 [Example 108, (2S,3S)-3-(3-fluorophenyl)-2-methyl-3-(5-(4-(4-morpholinylcarbonyl)phenyl)-2-thienyl)-N-1,3,4-thiadiazol-2-ylpropanamide]	5.39 nM
C[C@@H](C(=O)Nc1nncs1)[C@H](c1cccc(F)c1)c1ccc(-c2ccc(C(=O)N3CCC3)c(F)c2)s1 [Example 122, (2R,3R)-3-(5-(4-(1-azetidinylcarbonyl)-3-fluorophenyl)-2-thienyl)-3-(3-fluorophenyl)-2-methyl-N-1,3,4-thiadiazol-2-ylpropanamide]	1.91 nM

Continued, values first:

Ki	SMILES
7.16 nM	C[C@H](C(=O)Nc1nncs1)[C@@H](c1cccc(F)c1)c1ccc(-c2ccc(C(=O)N(C)C)c(Cl)c2)s1 [Example 123, 2-chloro-4-(5-((1S,2S)-1-(3-fluorophenyl)-2-methyl-3-oxo-3-(1,3,4-thiadiazol-2-ylamino)propyl)-2-thienyl)-N,N-dimethylbenzamide]
7.27 nM	C[C@H](C(=O)Nc1nncs1)[C@@H](c1cccc(F)c1)c1ccc(-c2ccc(C(=O)N3CCOCC3)c(Cl)c2)s1 [Example 124, (2S,3S)-3-(5-(3-chloro-4-(4-morpholinylcarbonyl)phenyl)-2-thienyl)-3-(3-fluorophenyl)-2-methyl-N-1,3,4-thiadiazol-2-ylpropanamide]
5.71 nM	C[C@H](C(=O)Nc1nncs1)[C@@H](c1cccc(F)c1)c1ccc(-c2ccc(C(=O)N(C)C)cc2)s1 [Example 125, 4-(5-((1S,2S)-1-(3-fluorophenyl)-2-methyl-3-oxo-3-(1,3,4-thiadiazol-2-ylamino)propyl)-2-thienyl)-N,N-dimethylbenzamide]
220 nM	C[C@H](C(=O)Nc1nncs1)[C@H](c1cccc(F)c1)c1ccc(-c2ccc(C(=O)N(C)C)c(Cl)c2)s1 [Example 126, 2-chloro-4-(5-((1R,2S)-1-(3-fluorophenyl)-2-methyl-3-oxo-3-(1,3,4-thiadiazol-2-ylamino)propyl)-2-thienyl)-N,N-dimethylbenzamide]
148 nM	C[C@H](C(=O)Nc1nncs1)[C@H](c1cccc(F)c1)c1ccc(-c2ccc(C(=O)N3CCOCC3)c(Cl)c2)s1 [Example 127, (2S,3R)-3-(5-(3-chloro-4-(4-morpholinylcarbonyl)phenyl)-2-thienyl)-3-(3-fluorophenyl)-2-methyl-N-1,3,4-thiadiazol-2-ylpropanamide]
277 nM	C[C@H](C(=O)Nc1nncs1)[C@H](c1cccc(F)c1)c1ccc(-c2ccc(C(=O)N(C)C)cc2)s1 [Example 128, 4-(5-((1R,2S)-1-(3-fluorophenyl)-2-methyl-3-oxo-3-(1,3,4-thiadiazol-2-ylamino)propyl)-2-thienyl)-N,N-dimethylbenzamide]
158 nM	C[C@@H](C(=O)Nc1nncs1)[C@@H](c1cccc(F)c1)c1ccc(-c2ccc(C(=O)N(C)C)c(Cl)c2)s1 [Example 129, 2-chloro-4-(5-((1S,2R)-1-(3-fluorophenyl)-2-methyl-3-oxo-3-(1,3,4-thiadiazol-2-ylamino)propyl)-2-thienyl)-N,N-dimethylbenzamide]
160 nM	C[C@@H](C(=O)Nc1nncs1)[C@@H](c1cccc(F)c1)c1ccc(-c2ccc(C(=O)N3CCOCC3)c(Cl)c2)s1 [Example 130, (2R,3S)-3-(5-(3-chloro-4-(4-morpholinylcarbonyl)phenyl)-2-thienyl)-3-(3-fluorophenyl)-2-methyl-N-1,3,4-thiadiazol-2-ylpropanamide]
236 nM	C[C@@H](C(=O)Nc1nncs1)[C@@H](c1cccc(F)c1)c1ccc(-c2ccc(C(=O)N(C)C)cc2)s1 [Example 131, 4-(5-((1S,2R)-1-(3-fluorophenyl)-2-methyl-3-oxo-3-(1,3,4-thiadiazol-2-ylamino)propyl)-2-thienyl)-N,N-dimethylbenzamide]
4.85 nM	C[C@H](C(=O)Nc1nncs1)[C@@H](c1ccccc1)c1ccc(Br)s1 [Example 133, (2S,3S)-3-(5-bromo-2-thienyl)-2-methyl-3-phenyl-N-1,3,4-thiadiazol-2-ylpropanamide]
1.98 nM	C[C@@H](C(=O)Nc1nncs1)[C@H](c1ccccc1)c1ccc(Br)s1 [Example 136, (2R,3R)-3-(5-bromo-2-thienyl)-2-methyl-3-phenyl-N-1,3,4-thiadiazol-2-ylpropanamide]
4.73 nM	C[C@H](C(=O)Nc1nncs1)[C@@H](c1ccccc1)c1ccc(-c2ccc(C(=O)N(C)C)cc2)s1 [Example 137, N,N-dimethyl-4-(5-((1S,2S)-2-methyl-3-oxo-1-phenyl-3-(1,3,4-thiadiazol-2-ylamino)propyl)-2-thienyl)benzamide]
3.2 nM	CCN(C)C(=O)c1ccc(-c2ccc([C@@H](c3cccc(F)c3)[C@@H](C)C(=O)Nc3ncc(C)s3)s2)cc1 [Example 142, N-ethyl-4-(5-((1R,2R)-1-(3-fluorophenyl)-2-methyl-3-((5-methyl-1,3-thiazol-2-yl)amino)-3-oxopropyl)-2-thienyl)-N-methylbenzamide]

Source: patent US8222247B2, “Modulators of glucocorticoid receptor, AP-1, and/or NF-kappabeta activity and use thereof” (Bristol-Myers Squibb Company, priority 2006, dated 2012)
